We go through one compound from patent US11034702B2, “Thienoisoquinolines and their derivatives for the treatment of cancer” (VALORBEC, SOCIÉTÉ EN COMMANDITE, priority 2016, dated 2021).

Each structure is given as a SMILES string.

For assay [1], the system named is MCF-10A (mammary gland fibrocystic disease) non-cancer cells. Put plainly: IC50 (viability) in MCF-10A non-cancer cells. The format is cell-based. The following applies: Homo sapiens, MCF10A non-cancer cells. The protocol:
(§1) 19 variants with different structural modifications have been made. […] In particular, it is shown that C75 causes death in multiple cancer cells with IC50 values in the 100 nM range, including breast cancers (MCF7, BT549), lung cancer (A549), colorectal cancer (HCT116) in addition to HeLa cells (cervical cancer).

In assay [2] the test system is BT549 (breast ductal carcinoma) cells. Put plainly: IC50 (viability) in BT549 cells. The following applies: Homo sapiens, BT-549. The format is cell-based. As for the experimental part:
as §1

For assay [3], the system named is HCT116 (colorectal cancer) cells. Put plainly: IC50 (cell death) in HCT116 cells. The format is cell-based. Conditions: Homo sapiens, HCT-116; stated jointly for MCF7, BT549, A549, HCT116 and HeLa; HCT116 not in Table 3; read-out: IC50 values (death in multiple cancer cells). As for the experimental part:
as §1

Another assay concerns MCF-7 cells. Put plainly: Mitotic spindle phenotype in MCF-7 cells. The format is cell-based, human. The following applies: MCF-7, 300 nM, 6-8 hours. The protocol: (§2) FIG. 2A) is a line graph showing the percentage of HCT116 (p53−/−) cells, A549 cells, HeLa cells and H1299 cells in mitosis after treatment with various concentrations of C75 for one population doubling time. All of the cell lines show an increase in the proportion of mitotic cells after treatment with 200 nM C75. The bars indicate standard deviation. […] While the mitotic spindles were not dramatically altered by C75 in HFF1 cells, they were monopolar (as shown) or fragmented in the other cell types. […] The mitotic spindles were more strongly fragmented after C75 treatment in these cells vs. the cells in FIG. 2B). […] While mitotic spindles recovered bipolarity after removing nocodazole, they remained multipolar after removing C75. FIG. 2F) is a series of time-lapse images of a live HeLa cell expressing GFP:tubulin after treatment with C75 as shown in 2D) and 2E). The scale bar for all cells is 10 μm. FIG. 2G) is a schematic showing the putative target for C75. […]
(§3) C75 was also tested for efficacy in different cancer cell lines. […] To further assess the role of C75 in affecting centrosomes, HeLa cells were treated with C75 for a short period of time (5 minutes), then C75 was removed and the cells were analyzed for spindle phenotypes (schematic in FIG. 2D). […]

For the next assay, the system named is BT-549 cells. Put plainly: Mitotic spindle phenotype in BT-549 cells. The assay is classed as cell-based, human. Conditions: BT-549, 300 nM, 6-8 hours. The protocol: as §2, §3
Another assay relates to HCT116 spheroids. Put plainly: HCT116 multicellular tumour spheroids. The assay is classed as cell-based. As for the experimental part: (§4) FIG. 5A) is a series of images of HeLa multicellular tumor spheroids (spheroids) treated with control (500 nM C87), empty nanoparticles, 500 nM C75 and 250 nM C75-loaded nanoparticles over 3 days. […] The scale bar for all images is 100 μm. FIG. 5B) is a series images of HeLa spheroids after three days of treatment with control (500 nM C87) or 500 nM C75. The spheroids were stained for fluorescein diacetate (to detect live cells) and propidium iodide (to detect dead cells). […] The scale bar for all images is 100 μm. FIG. 5C) is a series of images of HCT116 spheroids treated with control (1 μM C87), 500 nM C75, 1 μM C75 and 500 nM C75-loaded nanoparticles over 5 days. […] The borders of the spheroids treated with 1 μM C75 or with 500 nM C75-loaded nanoparticles became highly irregular, indicative of loss of spheroid integrity. FIG. 5D) is a series images of HCT116 spheroids after six days of treatment with control (1 μM C87) or 1 μM C75. The spheroids were stained for fluorescein diacetate (live cells) and propidium iodide (dead cells). […] FIG. 5E) is a line graph showing the growth in surface area (%) of HCT116 spheroids treated with control (1 μM C87), 500 nM C75 and 1 μM C75 after six days. FIG. 5F) is a series of images of A549 spheroids treated with control (750 nM C87), 500 nM C75, 1 μM C75 and 500 nM C75-loaded nanoparticles over 5 days. […] The scale bar for all images is 100 μm. […]

For another assay, the system named is A549 cells. Put plainly: Mitotic spindle phenotype in A549 cells. The format is cell-based, human. Conditions: A549, 300 nM, 6-8 hours. As for the experimental part:
as §2, §3

Assay [4] relates to HFF1 (fibroblast) non-cancer cells. Put plainly: IC50 (viability) in HFF1 non-cancer cells. The format is cell-based. The following applies: Homo sapiens; HFF-1 non-cancer cells. The protocol:
as §1

In the next assay the test system is A549 spheroids. Put plainly: A549 multicellular tumour spheroids. The format is cell-based, human. The protocol: as §4
The test system of another assay is H1299 cells. Put plainly: Mitotic spindle phenotype in H1299 cells. The following applies: H1299, 300 nM, 6-8 hours. The assay is classed as cell-based, human. As for the experimental part: as §2, §3
The mark [5] stands for this setting: 500 nM or 1 μM C75, 500 nM C75-loaded nanoparticles, over 5 days.

What is called IC50 is the concentration that inhibits the measured activity by half. Turning to `COc1ccc(S(=O)(=O)N2Cc3ccccc3-c3sc(Br)cc32)cc1` [Compound C75], the IC50 in assay [1] was 309 nM; in [2], 158 nM; in assay [3], approximately 100 nM; in [4] it was 467 nM. Also, the mitotic spindle phenotype result was “mix of monopolar, bipolar and multipolar spindles” in the assay on MCF-7 cells; “most of the spindles were severely fragmented” in the assay on BT-549 cells; “most of the spindles were severely fragmented” in the assay on A549 cells; “mix of monopolar, bipolar and multipolar spindles” in the assay on H1299 cells. The “effect on growth of HCT116 spheroids” value with HCT116 spheroids (setting [5]) is “regress the growth”. Further, the “live/dead staining of spheroids (fluorescein diacetate / propidium iodide)” value in the assay on HCT116 spheroids (HCT116 spheroids, 1 μM, six days) was “much smaller after C75-treatment, but still contained live cells”; with A549 spheroids (A549 spheroids, 1 μM, six days), “fewer live cells”. In addition, the “effect on growth of A549 spheroids” value in the assay on A549 spheroids (setting [5]) was “regress the growth”.
